One data set deals with PGT128. The data set can be described thus: Binding of radiolabeled, cyclized, glycosylated peptides to PGT128 (Protein G bead capture, scintillation counting). Particulars: for Kd: after affinity purification with 100 nM PGT128. As to the method: Radioactive Peptides. For binding analysis, translation (50 μL) was carried out in the presence of PDF/MAP and ^3H-histidine for radiolabeling. The crude peptides were purified by Ni-NTA agarose or, if the sequence contained two cysteine residues, was cyclized while captured on the Ni-NTA resin. The peptide eluents were combined and dialyzed as follows. To the combined eluents was added a solution of Triton X-100 in water for a final concentration of 0.1%. Then, the peptides were dialyzed against 0.1% (v/v) Triton X-100 using a Slide-A-Lyzer™ MINI device (0.1 mL capacity, 3.5 kDa MWCO) (ThermoScientific) at room temperature overnight. The dialyzed peptides were retrieved from the devices, transferring to 0.5 mL centrifuge tubes. The peptide solutions were concentrated to dryness by speedvac for the click reaction.
Sequences were screened for their binding to PGT128 as follows. Each glycosylated peptide (20 fmol) was incubated with either 0 nM or 100 nM PGT128, diluted to 20 μL with 1× selection buffer, tumbling for 1 hour at room temperature. While tumbling, Dynabeads™ Protein G (Invitrogen) were equilibrated with 1× selection buffer as follows. Steps were carried out using a multi-channel pipettor where possible. For each sequence, 5 μL of Protein G bead suspension was transferred to a 0.2 mL PCR tube in a strip. Then, 40 μL of 1× selection buffer was added to the beads. The mixture was resuspended by gently vortexing, spun down briefly, and placed on a magnet for 1 minute. The supernatant was removed, and this wash was repeated two more times. The final supernatant was removed just prior to addition of the incubated peptide/antibody mixture. The mixture was allowed to tumble at room temperature for 30 minutes to capture antibodies and bound peptides. Then, the suspension was briefly spun down, placed on a magnet, and the supernatant was transferred to an individual 0.2 mL PCR tube. To wash the beads, 20 μL of 1× selection buffer was added, gently vortexed, spun down briefly, placed on a magnet for 1 minute, and the wash was transferred to the same PCR tube as the supernatant. This wash step was repeated twice more for a total of three washes, saved altogether with the supernatant as the “unbound” fraction. The beads were then resuspended in 40 μL of denaturing elute buffer. The suspension was heated at 95° C. for 5 minutes to denature antibodies, spun down briefly, placed on a magnet for 1 minute, and the eluent was transferred to an individual 0.2 mL PCR tube. The beads were washed with 40 μL of denaturing elute buffer, and the wash was placed into the same tube as the eluent. The combined eluent and wash represented the “bound” fraction. The beads were resuspended in 40 μL of denaturing elute buffer, vortexed, and directly placed into a vial with liquid scintillation cocktail for radioactivity measurements, though it was not included in calculations of fraction bound. Each of the tubes with the “unbound” and “bound” fractions were placed into vials for LSC. The tube in which the antibody and peptides were incubated were also measured by LSC, but not included in calculations of fraction bound.
Cyclized and glycosylated peptides 91-8 (SEQ ID NO:74) and 91-12 (SEQ ID NO:76) (Heavily Biased library) were subject to PGT128 affinity purification. The sequences (0.3 μmol) were each incubated with 100 nM PGT128, diluted to 40 μL with 1× selection buffer, tumbling for 1 hour at room temperature. The antibody/peptide complexes were captured on equilibrated Protein G (10 μL) and washed as described previously. The bound fraction was then eluted as follows. The beads were resuspended in 10 μL of 1× selection buffer and heated at 70° C. for 30 minutes. Then, the suspension was chilled on ice for 5 minutes, and tumbled at room temperature for 10 minutes. The eluent was separated, and the beads were washed with 10 μL of 1× selection buffer. The wash was combined with the eluent as the “bound” fraction. […]

Data set [1] is described as follows: Solubility seen during reduction and cyclization of the synthetic peptide. The following applies: reduced peptide in 200 mM NH4HCO3 with 10 mM TCEP, not glycosylated. Type of data set: physicochemical. As to the method:
Then, 9 mg of crude peptide was reduced and cyclized as follows. Each peptide (1 mM final concentration) was dissolved in 200 mM NH4HCO3 with 10 mM TCEP for a reaction volume of 1332 μL. The reactions were tumbled at room temperature for 50 minutes. At that time, the reactions were buffer-exchanged to remove excess TCEP. […] The pellet was washed six times with 1 mL portions of 200 mM NH4HCO3. Portions of the H-22 reaction were transferred to Centricon-500 spin columns (MWCO 2 kDa) with 300 μL of 200 mM NH4HCO3. The filters were spun down and washed six times with 300 μL of 200 mM NH4HCO3. The solutions were then diluted to 1322 μL with 200 mM NH4HCO3, 5.95 mL of water, and 5.68 mL of MeCN in a 15 mL conical tube. Then, 529 μL of a solution of 5 mM m-dibromoxylene in MeCN was added, for a final concentration of 0.2 mM of m-dibromoxylene and 0.1 mM peptide. The cyclization reactions were tumbled at room temperature and monitored by LC-MS. After 40 minutes, H22 was complete. At that time, 132 μL of 5 mM m-dibromoxylene in MeCN was added to the H-1 reaction to push it to completion (total reaction time: 140 minutes). The reactions were quenched by lowering the pH with formic acid. The solutions were concentrated under reduced pressure and lyophilized overnight.

The mark [2] stands for this setting: before PGT128 affinity purification.
[3] abbreviates: following PGT128 affinity purification.

The Kd is a measure of binding affinity in units of concentration. Higher therefore signals a looser complex. For the sequence “MAHYSXNHXRHPLYPSVNHRXSYPRIGLLSRIGDIRSASCXLRCFRXRST [91-8cy]”, the affinity on PGT128, expressed as Kd, was 2.73 ± 0.36 nM. Besides, the maximum fraction bound is listed as 69% in the data set with PGT128 (setting [2]) and 85% in the data set with PGT128 (setting [3]).

On PGT128, “XYPNTLNNVYQKCNKYNVIGDIRXARCXHXEHFSSQDQPKSKHKRRYKGF [91-12cy]” returned a Kd of 7.41 ± 1.29 nM. The maximum fraction bound is 54% in the data set on PGT128 (setting [2]) and 74% in the data set on PGT128 (setting [3]).

“YTEKHNGIGDIRPAICXNSKNQNHRCNHYQIKLYIHXLXRLPHNYRNS [H-1, Top round 12 PGT128 cluster, Heavily Biased library; made by SPPS with C-terminal biotinyl-lysine]”: the solubility result in data set [1] is “poor solubility”.
